Target: human GSK3β (Homo sapiens, UniProt P49841)
Test: Screening for GSK3 inhibitory activity using a cell-free assay
Assay type: biochemical
Details: read-out: IC50 with respect to GSK3
Protocol: This amount represents the amount of radiolabeled phosphate incorporated into the peptide substrate.
The captured radiolabeled peptide substrate can be quantitated in a scintillation counter using known methods. […] If an inhibitor is present during the reaction, GSK3 activity will be reduced, and a smaller quantity of radiolabeled phosphate will thus be incorporated into the peptide substrate.
Pyrimidine and pyridine compounds of the present invention were dissolved in DMSO, then tested for inhibition of human GSK3β (the nucleotide sequence for human GSK3β appears in GenBank under Accession No. L33801).
While the reaction was proceeding, streptavidin-coated Labsystems “Combiplate 8” capture plates (Labsystems, Helsinki, Finland) were blocked by incubating them with 300 μl/well of PBS containing 1% bovine serum albumin for at least one hour at room temperature. The blocking solution was then removed by aspiration, and the capture plates were filled with 100 ul/well of stopping reagent (50 μM ATP/20 mM EDTA).
When the three hour enzyme reaction was finished, triplicate 100 μl aliquots of each reaction mix were transferred to three wells containing stopping solution, one well on each of the three capture plates, and the well contents were mixed well. […] Finally, 200 μl of Microscint-20 scintillation fluid was added to each well of the plate. The plates were coated with plate sealers, then left on a shaker for 30 minutes. Each capture plate was counted in a Packard TopCount scintillation counter (Meridian, Conn.) and the results were plotted as a function of compound concentration.

Sequence of human GSK3β (P49841 whole entry): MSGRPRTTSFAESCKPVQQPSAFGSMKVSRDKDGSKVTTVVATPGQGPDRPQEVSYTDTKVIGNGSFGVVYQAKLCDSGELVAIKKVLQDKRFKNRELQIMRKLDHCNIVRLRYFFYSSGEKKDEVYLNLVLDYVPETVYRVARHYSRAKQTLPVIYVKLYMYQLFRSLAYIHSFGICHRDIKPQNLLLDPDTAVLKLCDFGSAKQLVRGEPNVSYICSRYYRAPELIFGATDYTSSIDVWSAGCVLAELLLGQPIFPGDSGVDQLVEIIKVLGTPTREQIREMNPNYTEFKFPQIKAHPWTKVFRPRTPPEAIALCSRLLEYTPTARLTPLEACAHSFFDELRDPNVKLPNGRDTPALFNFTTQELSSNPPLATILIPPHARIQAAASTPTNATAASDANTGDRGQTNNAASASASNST

IC50	Compound
≤ 1000 nM	CCOC(=O)c1cnc(NCCNc2ccc([N+](=O)[O-])cn2)nc1-c1ccc(S(C)(=O)=O)cc1 [ethyl 4-[4-(methyl-sulfonyl)phenyl]-2-({2-[(5-nitro(2-pyridyl))amino]ethyl}amino)pyrimidine-5-carboxylate]
≤ 10000 nM	CCOC(=O)c1cnc(NCCNc2ccc([N+](=O)[O-])cn2)nc1NCc1ccccc1Cl [ethyl 4-{[(2-chlorophenyl)methyl]amino}-2-({2-[(5-nitro(2-pyridyl))amino]ethyl}amino)pyrimidine-5-carboxylate]
≤ 1000 nM	CCOC(=O)c1cnc(NCCNc2ccc([N+](=O)[O-])cn2)nc1-c1ccc(N(C)C)cc1 [ethyl 4-[4-(dimethylamino)phenyl]-2-({2-[(5-nitro(2-pyridyl))amino]ethyl}-amino)pyrimidine-5-carboxylate]
≤ 10000 nM	CCOC(=O)c1cnc(NCCNc2ccc([N+](=O)[O-])cn2)nc1-c1ccc(OC)c(OC)c1 [ethyl 4-(3,4-dimethoxyphenyl)-2-({2-[(5-nitro(2-pyridyl))amino]ethyl}amino)pyrimidine-5-carboxylate]
≤ 1000 nM	CCOC(=O)c1cnc(NCCNc2ccc([N+](=O)[O-])cn2)nc1-c1ccc(C#N)cc1 [ethyl 4-(4-cyanophenyl)-2-({2-[(5-nitro(2-pyridyl))amino]ethyl}amino)pyrimidine-5-carboxylate]
≤ 1000 nM	CN(C)CCCOC(=O)c1cnc(NCCNc2ccc([N+](=O)[O-])cn2)nc1-c1ccc(C#N)cc1 [3-(dimethylamino)propyl 4-(4-cyanophenyl)-2-({2-[(5-nitro(2-pyridyl))amino]ethyl}amino)pyrimidine-5-carboxylate]
≤ 1000 nM	N#Cc1ccc(-c2nc(NCCNc3ccc([N+](=O)[O-])cn3)ncc2C(=O)OCc2ccccc2)cc1 [phenylmethyl 4-(4-cyanophenyl)-2-({2-[(5-nitro(2-pyridyl))amino]ethyl}amino)pyrimidine-5-carboxylate]
≤ 1000 nM	O=[N+]([O-])c1ccc(NCCNc2ncc(-n3nnc4ccccc43)c(-c3ccc(Cl)cc3Cl)n2)nc1 [[5-benzotriazolyl-4-(2,4-dichlorophenyl)pyrimidin-2-yl]{2-[(5-nitro(2-pyridyl))amino]ethyl}amine]
≤ 1000 nM	CN(C)CCCCOC(=O)c1cnc(NCCNc2ccc([N+](=O)[O-])cn2)nc1-c1ccc(C#N)cc1
≤ 1000 nM	CCOC(=O)c1cnc(NCCNc2ccc([N+](=O)[O-])cn2)nc1NCc1ccc(C#N)cc1 [ethyl 4-{[(4-cyanophenyl)methyl]amino}-2-({2-[(5-nitro(2-pyridyl))amino]-ethyl}amino)pyrimidine-5-carboxylate]
≤ 1000 nM	N#Cc1ccc(-c2nc(NCCNc3ccc([N+](=O)[O-])cn3)ncc2NCc2ccccc2)cc1 [4-[2-({2-[(5-nitro(2-pyridyl))amino]ethyl}amino)-5-[benzylamino]pyrimidin-4-yl]benzenecarbonitrile]
≤ 10000 nM	CCOC(=O)c1cnc(NCCNc2ccc([N+](=O)[O-])cn2)nc1-c1cccc(C(F)(F)F)c1 [ethyl 2-({2-[(5-nitro(2-pyridyl))amino]ethyl}amino)-4-[3-(trifluoromethyl)phenyl]pyrimidine-5-carboxylate]
≤ 10000 nM	Cc1cccc(CNc2ccnc(NCCNc3ccc([N+](=O)[O-])cn3)n2)c1 [[(3-methylphenyl)methyl][2-({2-[(5-nitro-(2-pyridyl))amino]ethyl}amino)pyrimidin-4-yl]amine]
≤ 1000 nM	CCOC(=O)c1cnc(NCCNc2ccc([N+](=O)[O-])cn2)nc1-c1ccc(CC)cc1 [ethyl 4-(4-ethylphenyl)-2-({2-[(5-nitro(2-pyridyl))amino]ethyl}amino)pyrimidine-5-carboxylate]

The next lines start with the compound.

Compound	IC50
NC(=O)c1ccc(-c2ccnc(NCc3cccc(C(F)(F)F)c3)n2)cc1 [4-[2-({[3-(trifluoromethyl)phenyl]methyl}amino)pyrimidin-4-yl]-benzamide]	≤ 10000 nM
N#Cc1ccc(NCCNc2ncc(-c3ncc[nH]3)c(-c3ccc(Br)cc3Cl)n2)nc1 [6-[(2-{[4-(4-bromo-2-chlorophenyl)-5-imidazol-2-ylpyrimidin-2-yl]amino}ethyl)amino]pyridine-3-carbonitrile]	≤ 1000 nM
O=[N+]([O-])c1cnc(NCCNc2ccccn2)nc1-c1ccccc1 [(5-nitro-4-phenylpyrimidin-2-yl)[2-(2-pyridylamino)ethyl]amine]	≤ 1000 nM
NC(=O)c1ccc(-c2ccnc(NCc3ccc(-c4cccc(N)c4)cc3)n2)cc1 [4-[2-({[4-(3-aminophenyl)phenyl]methyl}amino)pyrimidin-4-yl]benzamide]	≤ 10000 nM
NC(=O)c1ccc(-c2ccnc(NCCCOc3ccc(Cl)cc3Cl)n2)cc1 [4-(2-{[3-(2,4-dichlorophenoxy)propyl]amino}pyrimidin-4-yl)benzamide]	≤ 10000 nM
O=C(NCc1cccc(C(F)(F)F)c1)c1ccc(-c2ccnc(NCCNc3ccc([N+](=O)[O-])cn3)n2)cc1 [{4-[2-({2-[(5-nitro(2-pyridyl))amino]ethyl}amino)pyrimidin-4-yl]phenyl}-N-{[3-(trifluoromethyl)phenyl]methyl}carboxamide]	≤ 10000 nM
O=[N+]([O-])c1ccc(NCCNc2ncc(-c3ncc[nH]3)c(-c3ccc(C(F)(F)F)cc3)n2)nc1 [{5-imidazol-2-yl-4-[4-(trifluoromethyl)phenyl]pyrimidin-2-yl}{2-[(5-nitro(2-pyridyl))amino]ethyl}amine]	≤ 1000 nM
NC(=O)c1ccc(-c2ccnc(NCCCOc3ccc4ncccc4c3)n2)cc1 [4-{2-[(3-(6-quinolyloxy)propyl)-amino]pyrimidin-4-yl}benzamide]	≤ 10000 nM
N#Cc1ccc(-c2nc(NCCNc3ccc([N+](=O)[O-])cn3)nc(-c3ccc(F)cc3)c2C(=O)O)cc1 [4-(4-cyanophenyl)-6-(4-fluorophenyl)-2-({2-[(5-nitro(2-pyridyl))amino]ethyl}-amino)pyrimidine-5-carboxylic acid]	≤ 1000 nM
CN1CCN(c2ccc(NCCNc3ccc([N+](=O)[O-])c(N)n3)nc2-c2cccnc2)C(=O)C1 [1-{6-[2-(6-Amino-5-nitropyridin-2-ylamino)-ethylamino]-[2,3′]bipyridinyl-3-yl}-4-methyl-piperazin-2-one]	≤ 10000 nM
CCOC(=O)c1cnc(NCCNc2ncccn2)nc1-c1ccc(C#N)cc1 [ethyl 4-(4-cyanophenyl)-2-{[2-(pyrimidin-2-ylamino)ethyl]amino}pyrimidine-5-carboxylate]	≤ 10000 nM
N#Cc1ccc(-c2nc(NCCNc3ccc([N+](=O)[O-])cn3)ncc2-c2ncc[nH]2)cc1 [4-[5-imidazol-2-yl-2-({2-[(5-nitro(2-pyridyl))amino]ethyl}amino)pyrimidin-4-yl]benzenecarbonitrile]	≤ 1000 nM
FC(F)(F)c1ccc(NCCNc2ncc(-c3ncc[nH]3)c(-c3ccc(Cl)cc3Cl)n2)nc1 [[4-(2,4-dichlorophenyl)-5-imidazol-2-ylpyrimidin-2-yl](2-{[5-(trifluoromethyl)(2-pyridyl)]amino}ethyl) amine]	≤ 1000 nM
O=C(NCc1ccc(Br)cc1)c1ccc(-c2ccnc(NCCNc3ccc([N+](=O)[O-])cn3)n2)cc1 [N-[(4-bromophenyl)methyl]{4-[2-({2-[(5-nitro(2-pyridyl))-amino]ethyl}amino)pyrimidin-4-yl]phenyl}carboxamide]	≤ 10000 nM
CN1CC(=O)N(c2cnc(NCCNc3ccc([N+](=O)[O-])c(N)n3)nc2-c2ccc(Cl)cc2Cl)C(=O)C1 [1-[2-({2-[(6-amino-5-nitro(2-pyridyl))amino]ethyl}-amino)-4-(2,4-dichlorophenyl)pyrimidin-5-yl]-4-methylpiperazine-2,6-dione]	≤ 1000 nM
NS(=O)(=O)c1ccc(CNC(=O)c2ccc(-c3ccnc(NCCNc4ccc([N+](=O)[O-])cn4)n3)cc2)cc1 [{4-[2-({2-[(5-nitro(2-pyridyl))-amino]ethyl}amino)pyrimidin-4-yl]phenyl}-N-[(4-sulfamoylphenyl)methyl]carboxamide]	≤ 10000 nM
O=C(NCC(c1ccccc1)c1ccccc1)c1ccc(-c2ccnc(NCCNc3ccc([N+](=O)[O-])cn3)n2)cc1 [N-(2,2-diphenylethyl){4-[2-({2-[(5-nitro(2-pyridyl))amino]ethyl}amino)pyrimidin-4-yl]phenyl}carboxamide]	≤ 10000 nM
Nc1nc(NCCNc2ncc(N3CCOCC3)c(-c3ccc(Cl)cc3Cl)n2)ccc1[N+](=O)[O-] [{2-[(6-amino-5-nitro(2-pyridyl))amino]ethyl}[4-(2,4-dichlorophenyl)-5-morpholin-4-yl-pyrimidin-2-yl]amine]	≤ 1000 nM
CCOC(=O)c1c(-c2ccncc2)nc(NCCNc2ccc([N+](=O)[O-])cn2)nc1-c1ccc(C(N)=O)cc1	≤ 1000 nM
O=C(O)c1c(-c2ccc([N+](=O)[O-])cc2)nc(NCCNc2ccc([N+](=O)[O-])cn2)nc1-c1ccc(C(F)(F)F)cc1 [2-({2-[(5-nitro(2-pyridyl))amino]ethyl}amino)-6-(4-nitrophenyl)-4-[4-(trifluoromethyl)phenyl]pyrimidine-5-carboxylic acid]	≤ 10000 nM
O=C(NCc1cc(Cl)cc(Cl)c1)c1ccc(-c2ccnc(NCCNc3ccc([N+](=O)[O-])cn3)n2)cc1 [N-[(3,5-dichlorophenyl)methyl]{4-[2-({2-[(5-nitro(2-pyridyl))amino]ethyl}amino)pyrimidin-4-yl]phenyl}carboxamide]	≤ 10000 nM
CC(CNc1nccc(-c2ccc(C(N)=O)cc2)n1)c1ccccc1 (stereo not drawn) [4-{2-[(2-phenylpropyl)amino]pyrimidin-4-yl}benzamide]	≤ 1000 nM

From patent US7425557B2, “Inhibitors of glycogen synthase kinase 3” (Novartis Vaccines and Diagnostics, Inc., priority 1998, dated 2008)
